From patent US20140228287A1, “1-[(3-CYANO-PYRIDIN-2-YL)METHYL]-3-METHYL-7-(2-BUTYN-1-YL)-8-[3-(R)-AMINO-PIPERIDIN-1-YL]-AXANTHINE FOR THE TREATMENT OF A METABOLIC DISORDER OF A PREDOMINANTLY CARNIVOROUS NON-HUMAN ANIMAL” (BOEHRINGER INGELHEIM VETMEDICA GMBH, priority 2010, published 2014)
Structures can show the parent of a compound that is named as a salt. Where two headings read alike, the source gives them in different places.

Legend:
DPP IV [1] = target: DPP IV (Homo sapiens, UniProt P27487); assay: In vitro DPP IV inhibition; type: biochemical; conditions: for IC50: in vitro
Description: Studies were also conducted to assess the inhibitory effect of this compound on plasma DPP IV activity in several species.

DPP IV [2] = target: T1, DPP IV (Felis catus, UniProt Q9N2I7); assay: Exploratory single dose PK/PD (0.01/0.1/1.0 mg/kg) in cats: DPP IV activity; type: in vivo; conditions: read-out: DPP IV activity in cat plasma; for response vs control in vivo at 0.01 mg/kg: 0.01 mg/kg single oral; for response vs control in vivo at 0.1 mg/kg: 0.1 mg/kg single oral; for response vs control in vivo at 1 mg/kg: 1 mg/kg single oral
T1 construct: Blood samples for the determination of this compound and DPP IV activity were collected; from tissue; host or cells: plasma of domestic short hair / purpose-bred cats dosed orally
Description: The investigation of the PK/PD values was conducted in the same way as in Example 7, with the variations described below.
The aim of this study was to investigate the PK/PD of 1-[(3-cyano-pyridin-2-yl)methyl]-3-methyl-7-(2-butyn-1-yl)-8-[3-(R)-amino-piperidin-1-yl]-xanthine monohydrochloride in the cat after a single oral administration of 0, 0.01, 0.1 and 1.0 mg/kg body weight of this compound (dosages were based on the free base).
Eleven clinically healthy male adult domestic short hair cats with a body weight range of 3.5-5.0 kg were used in this study. All animals were treated orally once via a stomach tube. Blood samples were drawn at 0 h (i.e. prior to treatment), 30 min as well as 1, 2, 4, 8, 12, 24, 36, 48, 72 and 96 h after treatment and the activity of DPP IV was determined like in Example 6.

GLP-1 = assay: OGTT in normal cats after 9 mg per cat: GLP-1 concentrations; type: in vivo; conditions: for GLP-1 concentration: 9 mg/cat oral, OGTT beginning 1 h after
Description: Cats were fasted overnight and then lightly tranquilized with tiletamine/zolazepam (2 mg per cat intravenously (Fort Dodge Animal Health, Ft. Dodge, Iowa, USA). Glucose was administered via gastric tube (2 g/kg body weight; 80% w/v) after a baseline blood sample had been obtained. […]
Glucose measurements were performed using a colorimetric glucose oxidase method (DCL, Oxford, Conn., USA). Plasma insulin was measured as described in Hoenig et al. (1989), J. Endocrinol., vol. 121, p. 249-251. The concentrations of active GLP-1 were measured with an ELISA kit from Linco (St. Charles, Mo., USA). All samples were tested in duplicate. […] The interassay coefficient of variation (CV) was 7.6%, and the intra-assay CV was 12.1%.
An OGTT like in Example 11 was performed in […] beginning 1 h after oral administration of 9 mg 1-[(3-cyano-pyridin-2-yl)methyl]-3-methyl-7-(2-butyn-1-yl)-8-[3-(R)-amino-piperidin-1-yl]-xanthine monohydrochloride or placebo (2 groups with 6 animals each; 3 male and 3 females per group).

Sequence of DPP IV (Homo sapiens, UniProt P27487) (P27487 whole entry, species assumed): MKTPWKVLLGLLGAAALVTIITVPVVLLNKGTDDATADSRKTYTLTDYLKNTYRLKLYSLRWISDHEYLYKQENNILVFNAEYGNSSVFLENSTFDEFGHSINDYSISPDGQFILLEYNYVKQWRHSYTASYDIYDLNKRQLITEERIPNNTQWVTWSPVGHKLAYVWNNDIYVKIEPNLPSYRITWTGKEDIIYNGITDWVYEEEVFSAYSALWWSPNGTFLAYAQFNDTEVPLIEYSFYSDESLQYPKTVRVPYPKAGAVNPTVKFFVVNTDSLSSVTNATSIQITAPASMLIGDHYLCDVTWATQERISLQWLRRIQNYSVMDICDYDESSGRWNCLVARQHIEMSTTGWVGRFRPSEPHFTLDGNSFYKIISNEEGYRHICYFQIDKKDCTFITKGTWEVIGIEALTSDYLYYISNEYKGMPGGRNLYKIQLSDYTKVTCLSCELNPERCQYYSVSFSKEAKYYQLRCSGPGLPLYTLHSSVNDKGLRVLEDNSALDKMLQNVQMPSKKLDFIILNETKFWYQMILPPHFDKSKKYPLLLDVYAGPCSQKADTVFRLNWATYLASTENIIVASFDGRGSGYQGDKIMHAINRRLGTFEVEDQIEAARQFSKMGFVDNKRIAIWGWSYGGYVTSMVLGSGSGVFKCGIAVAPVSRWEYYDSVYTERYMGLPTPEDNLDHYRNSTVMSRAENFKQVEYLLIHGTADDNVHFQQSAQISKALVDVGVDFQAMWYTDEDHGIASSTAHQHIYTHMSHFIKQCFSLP
T1 sequence (Q9N2I7 38-765 limits assumed): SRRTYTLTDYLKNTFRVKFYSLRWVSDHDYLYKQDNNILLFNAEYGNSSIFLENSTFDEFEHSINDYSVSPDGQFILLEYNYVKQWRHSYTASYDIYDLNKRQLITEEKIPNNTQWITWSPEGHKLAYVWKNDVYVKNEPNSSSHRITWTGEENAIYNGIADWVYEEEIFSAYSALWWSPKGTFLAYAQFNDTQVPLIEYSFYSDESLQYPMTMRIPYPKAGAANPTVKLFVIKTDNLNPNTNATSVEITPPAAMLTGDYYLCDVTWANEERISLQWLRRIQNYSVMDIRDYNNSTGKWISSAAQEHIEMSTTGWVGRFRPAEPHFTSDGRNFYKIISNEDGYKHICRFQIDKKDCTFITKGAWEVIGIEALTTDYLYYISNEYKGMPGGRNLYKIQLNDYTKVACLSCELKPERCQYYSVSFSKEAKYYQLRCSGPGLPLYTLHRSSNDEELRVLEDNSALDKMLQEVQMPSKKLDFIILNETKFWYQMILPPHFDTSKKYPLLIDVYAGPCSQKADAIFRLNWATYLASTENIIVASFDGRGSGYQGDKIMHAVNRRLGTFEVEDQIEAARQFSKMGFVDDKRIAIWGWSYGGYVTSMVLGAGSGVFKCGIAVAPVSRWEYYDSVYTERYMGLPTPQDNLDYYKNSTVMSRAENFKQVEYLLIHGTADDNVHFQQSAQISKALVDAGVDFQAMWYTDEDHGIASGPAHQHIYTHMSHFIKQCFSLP

Compound: CC#CCn1c(N2CCC[C@@H](N)C2)nc2c1c(=O)n(Cc1ncccc1C#N)c(=O)n2C [1-[(3-cyano-pyridin-2-yl)methyl]-3-methyl-7-(2-butyn-1-yl)-8-[3-(R)-amino-piperidin-1-yl]-xanthine monohydrochloride]
- IC50 (DPP IV [1]; GLP-1 as substrate): ~0.18 nM
- IC50 (DPP IV [1]; dipeptide artificial substrate): ~1 nM
- mode of DPP IV inhibition (DPP IV [1]; mechanistic studies): competitive and reversible inhibitor
- response vs control in vivo at 0.01 mg/kg (DPP IV [2]; 0.5 h): 73%
- response vs control in vivo at 0.01 mg/kg (DPP IV [2]; 1 h): 66%
- response vs control in vivo at 0.01 mg/kg (DPP IV [2]; 2 h): 71%
- response vs control in vivo at 0.01 mg/kg (DPP IV [2]; 4 h): 77%
- response vs control in vivo at 0.01 mg/kg (DPP IV [2]; 8 h): 85%
- response vs control in vivo at 0.01 mg/kg (DPP IV [2]; 12 h): 88%
- response vs control in vivo at 0.01 mg/kg (DPP IV [2]; 24 h): 90%
- response vs control in vivo at 0.01 mg/kg (DPP IV [2]; 36 h): 87%
- response vs control in vivo at 0.01 mg/kg (DPP IV [2]; 48 h): 88%
- response vs control in vivo at 0.01 mg/kg (DPP IV [2]; 72 h): 85%
- response vs control in vivo at 0.01 mg/kg (DPP IV [2]; 96 h): 90%
- response vs control in vivo at 0.1 mg/kg (DPP IV [2]; 0.5 h): 23%
- response vs control in vivo at 0.1 mg/kg (DPP IV [2]; 1 h): 17%
- response vs control in vivo at 0.1 mg/kg (DPP IV [2]; 2 h): 16%
- response vs control in vivo at 0.1 mg/kg (DPP IV [2]; 4 h): 24%
- response vs control in vivo at 0.1 mg/kg (DPP IV [2]; 8 h): 39%
- response vs control in vivo at 0.1 mg/kg (DPP IV [2]; 12 h): 50%
- response vs control in vivo at 0.1 mg/kg (DPP IV [2]; 24 h): 67%
- response vs control in vivo at 0.1 mg/kg (DPP IV [2]; 36 h): 83%
- response vs control in vivo at 0.1 mg/kg (DPP IV [2]; 48 h): 82%
- response vs control in vivo at 0.1 mg/kg (DPP IV [2]; 72 h): 91%
- response vs control in vivo at 0.1 mg/kg (DPP IV [2]; 96 h): 90%
- response vs control in vivo at 1 mg/kg (DPP IV [2]; 0.5 h): 10%
- response vs control in vivo at 1 mg/kg (DPP IV [2]; 1 h): 10%
- response vs control in vivo at 1 mg/kg (DPP IV [2]; 2 h): 8%
- response vs control in vivo at 1 mg/kg (DPP IV [2]; 4 h): 10%
- response vs control in vivo at 1 mg/kg (DPP IV [2]; 8 h): 12%
- response vs control in vivo at 1 mg/kg (DPP IV [2]; 12 h): 15%
- response vs control in vivo at 1 mg/kg (DPP IV [2]; 24 h): 27%
- response vs control in vivo at 1 mg/kg (DPP IV [2]; 36 h): 63%
- response vs control in vivo at 1 mg/kg (DPP IV [2]; 48 h): 72%
- response vs control in vivo at 1 mg/kg (DPP IV [2]; 72 h): 80%
- response vs control in vivo at 1 mg/kg (DPP IV [2]; 96 h): 86%
- GLP-1 increase compared to Placebo (GLP-1; 9 mg per cat oral, OGTT in normal cats): significantly higher compared to Placebo
- GLP-1 concentration (GLP-1; 60 min after drug administration): 3.70 pmol/L
- GLP-1 concentration (GLP-1; 65 min after drug administration): 3.92 pmol/L
- GLP-1 concentration (GLP-1; 70 min after drug administration): 4.54 pmol/L
- GLP-1 concentration (GLP-1; 75 min after drug administration): 7.28 pmol/L
- GLP-1 concentration (GLP-1; 90 min after drug administration): 16.31 pmol/L
- GLP-1 concentration (GLP-1; 120 min after drug administration): 26.93 pmol/L
